According to patent US8772349B2, “Cannabinoid quinone derivatives” (Vivacell Biotechnology Espana, S.L., priority 2010, dated 2014):

Legend:
[1] = MTT cytotoxicity assay, MDA; conditions: human
Description: (§1) All cellular lines were grown at 37° C. and 5% CO2 in supplemented Dulbecco's modified Eagle's medium (DMEM) (Cambrex Co., Barcelona, Spain), containing 10% heat-inactivated fetal bovine serum (FBS) (Cambrex Co., Barcelona, Spain), 2 mM glutamine, penicillin (50 U/ml) and streptomycin (50 mg/ml).
(§2) Aliquots of cell suspensions were dispensed at 100 μl volumes into wells of 96-well tissue culture plates at a density of 10^4 cells/well. […] In each MTT assay, every concentration of the assayed substance was tested in three replicates. The inhibitory effect of the various compounds was calculated as percentage inhibition relative to cells treated with vehicle (0.5% DMSO).

[2] = MTT cytotoxicity assay, HeLa; conditions: human
Description: as §1, §2

[3] = MTT cytotoxicity assay, T47D; conditions: human
Description: as §1, §2

[4] = MTT cytotoxicity assay, 3T3-L1; conditions: mouse
Description: All cellular lines were grown at 37° C. and 5% CO2 in supplemented Dulbecco's modified Eagle's medium (DMEM) (Cambrex Co., Barcelona, Spain), containing 10% heat-inactivated fetal bovine serum (FBS) (Cambrex Co., Barcelona, Spain), 2 mM glutamine, penicillin (50 U/ml) and streptomycin (50 mg/ml). […] MSC were maintained in α-MEM with 15% FBS.
as §2

[5] = MTT cytotoxicity assay, AGS; conditions: human
Description: as §1, §2

[6] = MTT cytotoxicity assay, HCT116; conditions: human
Description: as §1, §2

3T3-L1 fibroblasts = assay: 3T3-L1 adipocyte differentiation assay / total triglyceride quantification
Description: The 3T3-L1 preadipocyte cell line was plated at a concentration of 2×10^5 cell/well in 6-well plates for RNA isolations and tygliceride cunatification. 3T3-L1 fibroblasts were grown until confluence (3 days) in DMEM with 10% FBS and antibiotics. Then (day 0), medium was supplemented with 1 μM dexamethasone, IBMX 0.5 mM and 10 μg/ml insulin, to induce differentiation for 2 days. In day 2, the medium was supplemented only with 5 μg/ml insulin for two more days. All mediums used were additionally supplemented with cannabinoids, or rosiglitazone (1 μM) as control, since day 0. […] For trygliceride cuantification, cells were maintained in medium supplemented with cannabinoids until day 12 and refreshed every two days. […] 3T3-L1 fully differentiated adipocytes were washed in PBS and sonicated three times for 5 seconds in a buffer containing 2 M NaCl, 2 mM EDTA and 50 mM sodium phosphate pH 7.4 to release cellular content. Total triglyceride content released was quantified using a commercial Triglyceride Assay kit (Applied BioSystem, Spain) based on a colorimetric reaction and measured by absorbance at 500 nm in a spectrophotometer.

[7] = system: T47D, human breast adenocarcinoma; assay: MTT cytotoxicity assay, T47D; conditions: read-out: IC50 values of MTT cytotoxicity assay; T47D, 24 hours of treatment
Description: as §1, §2

[8] = system: adipokines gene expression (IL-6, AdipoQ); assay: Adipocyte and adipokine gene expression by PCR in 3T3-L1 adipocytes; conditions: FIG. 5
Description: 3T3-L1 fibroblasts were grown until confluence (3 days) in DMEM with 10% FBS and antibiotics. Then (day 0), medium was supplemented with 1 μM dexamethasone, IBMX 0.5 mM and 10 μg/ml insulin, to induce differentiation for 2 days. In day 2, the medium was supplemented only with 5 μg/ml insulin for two more days. All mediums used were additionally supplemented with cannabinoids, or rosiglitazone (1 μM) as control, since day 0. In case of RNA extractions, cells were harvested on day 4. […] GAPDH gene was used as houskeeping gene.

3T3-L1 pre-adipocytes = assay: Glucose uptake (2-deoxy-D-glucose transport); type: cell-based, mouse; conditions: FIG. 6; for glucose uptake: presence and absence of insulin (1.74 μM)
Description: For assays of 2-deoxy-D-glucose transport 3T3-L1 pre-adipocytes cultured in 12-well plates were deprived of serum by incubation for 2 hours. […] Glucose transport was initiated by the addition of 50 μl of KRH buffer containing 0.5 mM 2-deoxy-D-[1, 2-3H]glucose (0.25 μCi) to each well; after 5 minutes, transport was terminated by washing the cells 3 times with ice-cold KRH buffer. The cells were solubilized, and the incorporated radioactivity was measured by liquid scintillation counting.
Data are given as means with deviation standard error bars of three replicates. […]

[9] = system: bone-marrow derived mesenchimal cells; assay: Mesenchymal stem cell differentiation to osteoblasts or adipocytes, marker gene expression by QRT-PCR; type: cell-based; conditions: human MSC, compounds in differentiation medium, FIG. 7
Description: Cells were plated at 500 cell/cm^2 on P6 plates (TPP, Trasadingen, Switzerland) containing α-MEM medium with 10% FBS. When the cell cultures were 80-90% confluent, the medium was supplemented with 10^−8 M dexamethasone, 0.2 mM ascorbic acid and 10 mM β-glycerolphosphate to induce differentiation to osteoblasts, and 5×10^−7 M dexamethasone, 0.5 mM isobutylmethylxanthine and […] indometacin to induce differentiation to adipocytes. All inducers were from Sigma-Aldrich. MSC (mesenchymal stem cells) were grown in an osteogenic or adipogenic medium for 21 days, together with a corresponding control (in the absence of differentiation inducers). Cell samples were collected at day 13. […] Expression values of nuclear ribosomal DNA were used to normalise the obtained values. Adipocyte and osteoblasts were obtained by differentiation of human mesenchymal stem cells grown in adipogenic or osteoblastogenic specific differentiation culture mediums. […] Bone forming osteoblasts and fat forming adipocytes are both derived from mesenchymal stem cells (MSCs). An increase in PPARg activity due to treatment with the antidiabetic thiazolidinedione (TZD) drug rosiglitazone results in a decreased number of osteoblasts and an increased number of adipocytes.

[10] = MDA cells (human breast cancer)
[11] = HeLa cells (human cervical carcinoma)
[12] = T47D cells (human breast adenocarcinoma)
[13] = 3T3-L1 cells (mouse embryonic fibroblast, adipose-like)
[14] = AGS cells (human gastric adenocarcinoma)
[15] = HCT116 cells (human colon carcinoma)

Row | Compound | IC50 at 24 h [1, 10] [µM] | IC50 at 24 h [2, 11] [µM] | IC50 at 24 h [3, 12] [µM] | IC50 at 24 h [4, 13] [µM] | IC50 at 24 h [5, 14] [µM] | IC50 at 24 h [6, 15] [µM] | IC50 at 24 h [1] [µM] | IC50 at 24 h [2] [µM] | IC50 at 24 h [4] [µM] | IC50 at 24 h [5] [µM] | IC50 at 24 h [6] [µM] | AdipoQ gene expression [8] | IL-6 gene expression [8] | glucose uptake (3T3-L1 pre-adipocytes) | further results
1 | C=C(C)[C@@H]1CCC(C)=C[C@H]1c1c(O)cc(CCCCC)cc1O [CBD, cannabidiol] | > 50 | > 50 | 35 | 30 | 25 | > 50 |  |  |  |  |  |  |  |  | 
2 | C=C(C)C1CCC(C)=C[C@H]1C1=C(O)C(=O)C(CCCCC)=CC1=O (some centres unmarked) [CBD-Q, CBD-Quinone] |  |  |  |  |  |  | 10.1 | 40.5 | 12 | 7.44 | 9.8 |  |  |  | cytotoxic effect in adipocyte differentiation assay, concentration (3T3-L1 fibroblasts; 3T3-L1, FIG. 8C, lacking bar): higher than 1 μM; IC50 at 24 h ([3]; IC50 values of MTT cytotoxicity assay, T47D, 24 hours of treatment): 20 µM; IC50 [7]: 17.1 µM
3 | CCCCCc1cc(O)c(C/C=C(\C)CCC=C(C)C)c(O)c1 [CBG, cannabigerol] | > 50 | > 50 | 47 | 42.2 | > 50 | > 50 |  |  |  |  |  | increment on AdipoQ | reduction of the pro-inflammatory cytokine IL-6 | able to increment the glucosa uptake both in presence and absence of insulin | 
4 | CCCCCC1=CC(=O)C(C/C=C(\C)CCC=C(C)C)=C(O)C1=O [CBG-Q, CBG Hydroxyquinone] |  |  |  |  |  |  | 49 | > 50 | 49 | 48 | 47 | increment on AdipoQ | reduction of the pro-inflammatory cytokine IL-6 | able to increment the glucosa uptake both in presence and absence of insulin | expression of marker genes in adipocytes and osteoblasts [9]: no significant alteration in expression of marker genes; differentiation of fibroblasts to adipocytes (total triglyceride), in words (3T3-L1 fibroblasts; 3T3-L1, FIGS. 4 and 8C): stimulate the differentiation of fibroblasts to adipocytes in a stronger way than CBG; IC50 at 24 h [3]: 44 µM; glucose uptake compared with CBG (3T3-L1 pre-adipocytes; absence of insulin): higher effect than CBG
